Measurements from the Deep4Chem optical property database.

Assay: solvent given as SMILES

SMILES: CC(=O)c1c2c(cc3c(N(C)C)cccc13)CCC2
- emission maximum (in C1CCCCC1): 480 nm
- emission maximum (in C1CCOC1): 543 nm
- emission maximum (in C1COCCO1): 534 nm
- emission maximum (in CC#N): 590 nm
- emission maximum (in CCO): 634 nm
- emission maximum (in CS(C)=O): 598 nm
- emission maximum (in Cc1ccccc1): 520 nm
- emission maximum (in ClC(Cl)Cl): 562 nm
- emission maximum (in ClCCl): 562 nm

SMILES: c1ccc(B2Nc3cc4c(cc3-c3sccc32)NB(c2ccccc2)c2ccsc2-4)cc1
- emission maximum (in ClCCl): 412 nm

SMILES: CC(C)(C)NC(=O)c1c([Si](C)(C)C)cc2ccc3cccc4ccc1c2c34
- emission maximum (in ClC(Cl)Cl): 383 nm

SMILES: CC[N+](CC)=c1ccc2nc3c(cc(NCCC(=O)NC(C)C(=O)OC)c4ccccc43)oc-2c1 (stereo unspecified)
- emission maximum (in CCO): 672 nm
- emission maximum (in O): 684 nm

SMILES: Cc1cc(C(F)(F)F)nc2c1ccc1nc(-c3ccc(Cl)cc3)cn12
- emission maximum (in CC#N): 463 nm
- emission maximum (in CCCCCC): 439 nm
- emission maximum (in CCCCOC(C)=O): 455 nm
- emission maximum (in CCOC(C)=O): 457 nm
- emission maximum (in CO): 459 nm
- emission maximum (in Cc1ccccc1): 455 nm
- emission maximum (in ClC(Cl)Cl): 452 nm
- emission maximum (in ClCCl): 455 nm
- emission maximum (in c1ccccc1): 455 nm

SMILES: COc1ccc(C2=[N+]3C(=Nc4c(-c5ccccc5)c5c(n4[B-]3(F)F)-c3ccc(OC)cc3CC5)C(c3ccccc3)=C2)cc1
- emission maximum (in ClC(Cl)Cl): 732 nm

SMILES: CC(C)(C)c1cc2ccc3c(N(c4ccc(F)cc4)c4ccc(F)cc4)cc(N(c4ccc(F)cc4)c4ccc(F)cc4)c4ccc(c1)c2c34
- emission maximum (in ClCCl): 465 nm

SMILES: C1=CC2=CC=CC3C=c4c(cc5cccc6cccc4c65)C(=C1)C23 (stereo unspecified)
- emission maximum (in ClCCl): 574 nm

SMILES: N#Cc1c(-c2ccccc2)cc(-c2ccccc2)[nH]c1=S
- emission maximum (in C1CCCCC1): 510 nm
- emission maximum (in C1COCCO1): 512 nm
- emission maximum (in CC#N): 495 nm
- emission maximum (in CCCCO): 506 nm
- emission maximum (in CCCO): 493 nm
- emission maximum (in CCO): 465 nm
- emission maximum (in CCOC(C)=O): 502 nm
- emission maximum (in CCOCC): 518 nm
- emission maximum (in CN(C)C=O): 505 nm
- emission maximum (in ClC(Cl)(Cl)Cl): 510 nm

SMILES: N#C/C(=C\c1ccc(/C=C/c2ccc(N(c3ccccc3)c3ccccc3)cc2)s1)C(=O)O
- emission maximum (in ClCCl): 676 nm

SMILES: CN(C)c1ccc(-c2nc3ccccc3n2-c2ccccc2)cc1
- emission maximum (in CC#N): 397 nm

SMILES: CCCCCCN1C(=O)c2cccc3cc(/N=C\c4c[nH]c5c4ccc4ccccc45)cc(c23)C1=O
- emission maximum (in ClC(Cl)Cl): 501 nm

SMILES: CC(C)c1cccc(C(C)C)c1N1C(=O)c2cc(Cl)c3c4c(Cl)cc5c6c(cc(Cl)c(c7c(Cl)cc(c2c37)C1=O)c64)C(=O)N(c1c(C(C)C)cccc1C(C)C)C5=O
- emission maximum (in Cc1ccccc1): 552 nm

SMILES: CCCCN(CCCC)c1ccc(/C=C/c2ccc3nc(-c4ccccc4)c(/C=C/c4ccc(N(C)C)cc4)nc3c2)cc1
- emission maximum (in C1COCCO1): 540 nm
- emission maximum (in CC#N): 650 nm
- emission maximum (in ClCCl): 627 nm

SMILES: N#Cc1c(-n2c3ccccc3c3ccccc32)c(-n2c3ccccc3c3ccccc32)cc(-n2c3ccccc3c3ccccc32)c1-n1c2ccccc2c2ccccc21
- emission maximum (in CCCCCC): 439.08 nm
- emission maximum (in CCO): 468.52 nm
- emission maximum (in Cc1ccccc1): 442 nm
- emission maximum (in ClCCl): 456.64 nm

SMILES: Cc1ccc(N(c2ccc(C)cc2)c2ccc(-c3ccc(C=C(C#N)C#N)cc3)cc2)cc1
- emission maximum (in ClC(Cl)Cl): 676 nm

SMILES: Nc1ccc2c(c1)C(=O)NC2=O
- emission maximum (in C1CCOC1): 445 nm
- emission maximum (in C1COCCO1): 435 nm
- emission maximum (in CC#N): 458 nm
- emission maximum (in CC(C)(C)O): 501 nm
- emission maximum (in CC(C)=O): 457 nm
- emission maximum (in CC(C)O): 505 nm
- emission maximum (in CCO): 520 nm
- emission maximum (in CCOCC): 425 nm
- emission maximum (in CN(C)C=O): 470 nm
- emission maximum (in CO): 518 nm
- emission maximum (in O): 540 nm

SMILES: O=P1(c2ccccc2)C(c2ccc(C(F)(F)F)cc2)=Cc2ccccc21 (stereo unspecified)
- emission maximum (in C1CCOC1): 414 nm

SMILES: CC(C)(C)c1ccc(C2=Cc3cc4c(cc3P2(=O)c2ccccc2)C=C(c2ccc(C(C)(C)C)cc2)P4(=O)c2ccccc2)cc1 (stereo unspecified)
- emission maximum (in C1CCOC1): 495 nm

SMILES: CCc1c(C)c2n(c1C)[B-](F)(F)[N+]1=C(c3ccc[nH]3)c3ccccc3C1=C2C
- emission maximum (in C1CCOC1): 627 nm
- emission maximum (in CC#N): 623 nm
- emission maximum (in CCCCCC): 622 nm
- emission maximum (in CO): 622 nm
- emission maximum (in Cc1ccccc1): 630 nm
- emission maximum (in ClCCl): 629 nm

SMILES: c1ccc(-c2nc(-c3ccccc3)c(-c3ccccc3)[nH]2)cc1
- emission maximum (in CC#N): 387 nm
- emission maximum (in CO): 386.5 nm

SMILES: C/C=C/C1=NC(=C\c2ccc(O)cc2)/C(=O)N1C
- emission maximum (in ClC(Cl)Cl): 472 nm
- emission maximum (in O): 460 nm

SMILES: CC(C)(C)c1ccc2oc3nc4oc5ccc(N(c6ccccc6)c6ccccc6)cc5c4cc3c2c1
- emission maximum (in ClC(Cl)Cl): 379 nm

SMILES: COc1ccc(C#Cc2c(C#Cc3ccc(OC)cc3)c(C#Cc3ccc(OC)cc3)c(C#Cc3ccc(OC)cc3)c(C#Cc3ccc(OC)cc3)c2C#Cc2ccc(OC)cc2)cc1
- emission maximum (in ClCCl): 466 nm

SMILES: Cc1cccc2nc3c(=O)n(C)c(=O)nc-3n(C)c12
- emission maximum (in CC#N): 532 nm

SMILES: COc1ccc2c(c1)CCC1=C(C#Cc3cc4ccccc4c4ccccc34)O[B-](F)(F)[O+]=C12
- emission maximum (in ClCCl): 500 nm

SMILES: Cc1ccc2c(c1)C1(c3ccccc3-c3ccccc31)c1cc(C)ccc1N2c1ccc2c(c1)Sc1ccccc1P2(=S)c1ccccc1 (stereo unspecified)
- emission maximum (in Cc1ccccc1): 454.61 nm

SMILES: CC1=[N+]2C(=Cc3ccc(C)n3[B-]2(F)F)C=C1c1cc2n(c1)[B-](F)(F)[N+]1=CC=CC1=C2c1c(C)cc(C)cc1C
- emission maximum (in C1CCCCC1): 636 nm
- emission maximum (in CCOC(C)=O): 683 nm

SMILES: CCCC1=Cc2nc1ccc1[nH]c(cc1CCO)c1nc(ccc3[nH]c2cc3CCC)C(CCO)=C1
- emission maximum (in Cc1ccccc1): 642 nm

SMILES: c1ccc(-n2c3ccccc3c3cc(-c4cccc(-n5c6ccccc6c6ncccc65)c4)ccc32)cc1
- emission maximum (in ClCCl): 360 nm

SMILES: c1ccc2c(c1)Oc1ccccc1C21c2cc(-c3ccc4ccc5cccc6ccc3c4c56)ccc2-c2ccc(-c3ccc4ccc5cccc6ccc3c4c56)cc21
- emission maximum (in ClC(Cl)Cl): 422 nm

SMILES: c1cc2c3c(c1)-c1cccc4ccn(c14)B3n1ccc3cccc-2c31
- emission maximum (in C1CCOC1): 387 nm

SMILES: CC(C)CCCN1c2ccccc2CCc2ccccc21
- emission maximum (in CC#N): 352 nm
- emission maximum (in CO): 360 nm

SMILES: C(=C\c1cnc2ccccc2n1)/c1ccc(N2CCCCC2)cc1
- emission maximum (in C1CCOC1): 557 nm
- emission maximum (in CC#N): 617 nm
- emission maximum (in CCCCCCC): 480 nm
- emission maximum (in CS(C)=O): 626 nm
- emission maximum (in ClCCl): 583 nm

SMILES: CCCCC(CC)Cn1c2ccc(C(=C(C#N)C#N)c3ccccc3)cc2c2c(-c3ccc(Br)cc3)c3c(c(-c4ccc(Br)cc4)c21)c1cc(C(=C(C#N)C#N)c2ccccc2)ccc1n3CC(CC)CCCC (stereo unspecified)
- emission maximum (in C1CCOC1): 584 nm
- emission maximum (in CC#N): 536 nm
- emission maximum (in CCO): 576 nm
- emission maximum (in CCOC(C)=O): 582 nm
- emission maximum (in CN(C)C=O): 535 nm
- emission maximum (in Cc1ccccc1): 540 nm
- emission maximum (in ClCCl): 597 nm
- emission maximum (in c1ccccc1): 543 nm

SMILES: CC1=CC(C)=[N+]2C1=C(c1ccc(I)cc1)c1c(C)cc(C)n1[B-]2(OC(C)C)OC(C)C
- emission maximum (in ClC(Cl)Cl): 517.73 nm

SMILES: CCCCCCCCC1(CCCCCCCC)c2cc(-c3ccc(C(F)(F)F)cc3)ccc2-c2ccc(N(c3ccc(-n4c5ccccc5c5ccccc54)cc3)c3ccc4c(c3)C(CCCCCCCC)(CCCCCCCC)c3cc(-c5ccc(C(F)(F)F)cc5)ccc3-4)cc21
- emission maximum (in C1CCOC1): 455 nm
- emission maximum (in C1COCCO1): 434 nm
- emission maximum (in CC#N): 495 nm
- emission maximum (in CC(C)=O): 477 nm
- emission maximum (in CCCCCC): 416 nm
- emission maximum (in CCCCOCCCC): 425 nm
- emission maximum (in CCN(CC)CC): 423 nm
- emission maximum (in CCOC(C)=O): 450 nm
- emission maximum (in CCOCC): 432 nm
- emission maximum (in CN(C)C=O): 493 nm
- emission maximum (in CS(C)=O): 486 nm
- emission maximum (in Cc1ccccc1): 427 nm
- emission maximum (in ClC(Cl)Cl): 445 nm
- emission maximum (in ClCCl): 465 nm
- emission maximum (in c1ccccc1): 428 nm

SMILES: CCCCCCCCN1c2ccccc2Sc2cc(/C=C/c3ccc(N(c4ccc(/C=C/c5ccc6c(c5)Sc5ccccc5N6CCCCCCCC)cc4)c4ccc(/C=C/c5ccc(/C=C/c6ccc(N(c7ccc(/C=C/c8ccc9c(c8)Sc8ccccc8N9CCCCCCCC)cc7)c7ccc(/C=C/c8ccc9c(c8)Sc8ccccc8N9CCCCCCCC)cc7)cc6)c6nsnc56)cc4)cc3)ccc21
- emission maximum (in C1CCOC1): 654 nm
- emission maximum (in CCOC(C)=O): 644 nm
- emission maximum (in CN(C)C=O): 750 nm
- emission maximum (in Cc1ccccc1): 620 nm
- emission maximum (in ClC(Cl)Cl): 663 nm
- emission maximum (in ClCCl): 710 nm

SMILES: COc1nc(Nc2ccc3ccc4cccc5ccc2c3c45)nc(OC)n1
- emission maximum (in CC#N): 390 nm
- emission maximum (in CCCCOCCCC): 388 nm
- emission maximum (in CO): 388 nm

SMILES: N#Cc1c(-c2ccccc2)cc(N2c3ccccc3Oc3ccccc32)cc1-c1ccccc1
- emission maximum (in C1CCCCC1): 455 nm

SMILES: O=P1(c2ccccc2)C(c2cc(C(F)(F)F)cc(C(F)(F)F)c2)=Cc2c3ccc4cccc5ccc(c6cc(-c7ccccc7)n1c26)c3c45 (stereo unspecified)
- emission maximum (in C1CCCCC1): 501 nm
- emission maximum (in C1CCOC1): 521 nm
- emission maximum (in C1COCCO1): 514 nm
- emission maximum (in CC#N): 531 nm
- emission maximum (in CC(C)=O): 526 nm
- emission maximum (in CO): 524 nm
- emission maximum (in Cc1ccccc1): 514 nm
- emission maximum (in ClC(Cl)Cl): 514 nm
- emission maximum (in ClCCl): 521 nm

SMILES: O=Cc1ccc(Oc2ccc3c4c(cccc24)C(=O)N(CCO)C3=O)cc1
- emission maximum (in ClC(Cl)Cl): 414 nm

SMILES: CC1=NN(c2ccccc2)C(=O)/C1=C/c1cn(-c2ccccc2)nc1-c1ccccc1
- emission maximum (in C1CCOC1): 429 nm
- emission maximum (in C1COCCO1): 407 nm
- emission maximum (in CCO): 427 nm
- emission maximum (in CCOC(C)=O): 422 nm
- emission maximum (in CN(C)C=O): 435 nm
- emission maximum (in CO): 430 nm
- emission maximum (in CS(C)=O): 437 nm
- emission maximum (in Cc1ccccc1): 416 nm
- emission maximum (in ClC(Cl)Cl): 432 nm
- emission maximum (in ClCCl): 436 nm

SMILES: CC1(C)C(=O)C=Cc2ccc(N3CCC3)cc21
- emission maximum (in O): 555 nm

SMILES: Cc1cc(C)c(-c2nnc(-c3ccc(-n4c5ccccc5c5ccccc54)c(C)c3)o2)c(C)c1
- emission maximum (in CCO): 440 nm
- emission maximum (in Cc1ccccc1): 377 nm

SMILES: CC(=O)Nc1ccccc1C(=O)OC1CC(C)CCC1C(C)C (stereo unspecified)
- emission maximum (in C1CCCCC1): 363 nm
- emission maximum (in CC#N): 369 nm
- emission maximum (in CCO): 370 nm
- emission maximum (in Cc1ccccc1): 368 nm

SMILES: CCCCN(CCCC)c1ccc(C#Cc2cc(C#Cc3ccc(C#N)cc3)c(C#Cc3ccc(N(CCCC)CCCC)cc3)cc2C#Cc2ccc(C#N)cc2)cc1
- emission maximum (in ClCCl): 563 nm
- emission maximum (in c1ccccc1): 530 nm
